Assay type in all cases: cell-based
Assay [1] concerns the target T1, CFTR ΔF508 mutant (Homo sapiens, UniProt P13569, DEL508-508).
T1 construct: expressed in transfected cells; host or cells: CFBE41o- (adenoviral transduction)
As to the kind of experiment: YFP-halide influx assay for the CFTR-ΔF508 mutation, gluconate buffer. The settings on record: CFBE41o- cells, forskolin 10.67 μM. In a few lines: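 CFBE41o- cells adenovirally transduced with CFTR ΔF508 and YFP H148Q/I152L, then held 24 h at 27 °C or treated with CFTR modulator 24 h at 37 °C. I− quenching recorded for 7 s after injection; activity as 1-F/F0, EC50 from concentration plot.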

In assay [2] the target is T1, CFTR ΔF508 mutant. The assay is described as follows: YFP-halide influx assay for the CFTR-ΔF508 mutation (384 well, FDSS/μCell). The settings on record: CFBE41o- cells, CFTR-ΔF508, 1×D-PBS, fluorescence after 36 seconds. In a few lines: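 Potentiator read-out as 1−F/F0, F taken 36 s after iodide addition, EC50 fitted against compound concentration. Cells: CFBE41o- expressing ΔF508 CFTR plus halide-sensitive YFP via adenovirus, rescued by 27 °C for 24 h or 24 h modulator at 37 °C.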

A further assay deals with T2, CFTR G551D mutant (Homo sapiens, UniProt P13569, G551D).
T2 construct: expressed in transfected cells; host or cells: HEK293 (reverse transfection with plasmid)
As to the kind of experiment: YFP-halide influx assay for the CFTR-G551D mutation. The settings on record: HEK293 cells, forskolin 10.67 μM. In a few lines:
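HEK293 cells reverse-transfected with CFTR G551D and YFP H148Q/I152L/F47L halide sensor, expressed 24 h at 37 °C. Iodide-induced fluorescence quench recorded 7 s after I− injection; response = 1−F/F0, with EC50 from plot against compound concentration.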

Assay [3] has as its target T1, CFTR ΔF508 mutant. As to the kind of experiment: YFP-halide influx assay for the CFTR-ΔF508 mutation, PBS buffer (96 well). The settings on record: CFBE41o- cells, forskolin 10.67 μM. The text has this:
The YFP halide influx assay measures the functionality of the cystic fibrosis Transmembrane Conductance regulator (CFTR) channels in the cystic fibrosis bronchial epithelium cell line CFBE41o-. The assay is used to evaluate the capacity of compounds to increase the open probability of existing CFTR channels in the membrane. It makes use of the observation that the yellow fluorescent protein (YFP) variant YFP H148Q, I152L has its fluorescence substantially quenched by halide ions like Cl^− and I^−. (Galietta, Haggie, & Verkman, 2001) (Nagai, et al., 2002)
For this purpose, CFBE41o-cells are seeded in 96 well plates (6000 CFBE cells/well). One day after seeding, the CFBE cells are transduced with adenoviral vectors that direct the expression of the CFTR ΔF508 mutant and of the YFP reporter. Cells are incubated at 27° C., 5% CO2 for 24 hours so as to allow for the proper folding and migration to the membrane of the CFTR channel or treated with a CFTR modulator during 24 hours at 37° C.
The I^− induced quenching of fluorescence is recorded immediately after injection of I^− for 7 seconds. The capacity of a compound to increase the channel opening is directly correlated with the decrease in fluorescence, and is expressed as (1-(fluorescence after 7 seconds (F)/fluorescence before injection (F0))) and an EC50 can be derived from a (1-F/F0) vs compound concentration plot.

T2 sequence (P13569 whole entry G551D): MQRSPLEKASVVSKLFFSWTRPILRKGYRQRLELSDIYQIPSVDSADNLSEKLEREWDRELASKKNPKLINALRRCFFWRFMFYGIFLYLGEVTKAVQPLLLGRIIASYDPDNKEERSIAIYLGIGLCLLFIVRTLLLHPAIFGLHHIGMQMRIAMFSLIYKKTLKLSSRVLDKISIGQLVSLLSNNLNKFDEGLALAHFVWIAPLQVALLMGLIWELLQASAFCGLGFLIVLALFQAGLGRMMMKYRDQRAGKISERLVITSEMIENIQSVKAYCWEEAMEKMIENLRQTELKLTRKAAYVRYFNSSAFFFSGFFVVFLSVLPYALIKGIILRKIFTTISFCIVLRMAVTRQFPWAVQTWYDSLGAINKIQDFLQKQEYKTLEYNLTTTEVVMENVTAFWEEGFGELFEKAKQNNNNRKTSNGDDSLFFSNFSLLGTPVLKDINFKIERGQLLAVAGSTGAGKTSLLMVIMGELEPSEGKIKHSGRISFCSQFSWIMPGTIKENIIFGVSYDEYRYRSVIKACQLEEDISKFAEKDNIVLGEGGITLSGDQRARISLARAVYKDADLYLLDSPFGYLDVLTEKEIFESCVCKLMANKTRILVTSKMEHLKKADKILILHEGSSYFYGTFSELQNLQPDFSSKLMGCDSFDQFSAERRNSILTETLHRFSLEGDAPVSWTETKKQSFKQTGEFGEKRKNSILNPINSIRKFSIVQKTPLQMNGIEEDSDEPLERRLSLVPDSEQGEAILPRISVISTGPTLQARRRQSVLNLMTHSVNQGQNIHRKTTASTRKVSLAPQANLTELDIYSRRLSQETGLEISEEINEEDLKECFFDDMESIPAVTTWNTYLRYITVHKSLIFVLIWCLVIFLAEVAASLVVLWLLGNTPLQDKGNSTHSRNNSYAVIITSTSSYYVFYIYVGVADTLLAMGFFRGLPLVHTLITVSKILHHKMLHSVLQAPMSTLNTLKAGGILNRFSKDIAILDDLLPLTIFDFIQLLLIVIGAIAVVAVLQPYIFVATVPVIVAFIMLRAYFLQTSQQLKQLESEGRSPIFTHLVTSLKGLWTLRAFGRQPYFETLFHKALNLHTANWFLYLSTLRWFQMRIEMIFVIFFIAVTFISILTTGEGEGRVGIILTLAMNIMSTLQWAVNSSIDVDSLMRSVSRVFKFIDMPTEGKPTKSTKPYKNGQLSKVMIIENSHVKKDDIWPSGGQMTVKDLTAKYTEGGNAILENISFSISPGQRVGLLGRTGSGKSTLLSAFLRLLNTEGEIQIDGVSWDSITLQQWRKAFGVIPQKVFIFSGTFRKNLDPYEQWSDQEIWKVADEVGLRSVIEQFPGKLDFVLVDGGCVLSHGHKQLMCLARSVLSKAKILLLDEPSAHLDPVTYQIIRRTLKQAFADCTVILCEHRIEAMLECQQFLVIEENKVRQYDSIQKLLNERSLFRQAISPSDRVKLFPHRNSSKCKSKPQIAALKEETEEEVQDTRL
T1 sequence (P13569 with tags, fused parts or gaps DEL508-508): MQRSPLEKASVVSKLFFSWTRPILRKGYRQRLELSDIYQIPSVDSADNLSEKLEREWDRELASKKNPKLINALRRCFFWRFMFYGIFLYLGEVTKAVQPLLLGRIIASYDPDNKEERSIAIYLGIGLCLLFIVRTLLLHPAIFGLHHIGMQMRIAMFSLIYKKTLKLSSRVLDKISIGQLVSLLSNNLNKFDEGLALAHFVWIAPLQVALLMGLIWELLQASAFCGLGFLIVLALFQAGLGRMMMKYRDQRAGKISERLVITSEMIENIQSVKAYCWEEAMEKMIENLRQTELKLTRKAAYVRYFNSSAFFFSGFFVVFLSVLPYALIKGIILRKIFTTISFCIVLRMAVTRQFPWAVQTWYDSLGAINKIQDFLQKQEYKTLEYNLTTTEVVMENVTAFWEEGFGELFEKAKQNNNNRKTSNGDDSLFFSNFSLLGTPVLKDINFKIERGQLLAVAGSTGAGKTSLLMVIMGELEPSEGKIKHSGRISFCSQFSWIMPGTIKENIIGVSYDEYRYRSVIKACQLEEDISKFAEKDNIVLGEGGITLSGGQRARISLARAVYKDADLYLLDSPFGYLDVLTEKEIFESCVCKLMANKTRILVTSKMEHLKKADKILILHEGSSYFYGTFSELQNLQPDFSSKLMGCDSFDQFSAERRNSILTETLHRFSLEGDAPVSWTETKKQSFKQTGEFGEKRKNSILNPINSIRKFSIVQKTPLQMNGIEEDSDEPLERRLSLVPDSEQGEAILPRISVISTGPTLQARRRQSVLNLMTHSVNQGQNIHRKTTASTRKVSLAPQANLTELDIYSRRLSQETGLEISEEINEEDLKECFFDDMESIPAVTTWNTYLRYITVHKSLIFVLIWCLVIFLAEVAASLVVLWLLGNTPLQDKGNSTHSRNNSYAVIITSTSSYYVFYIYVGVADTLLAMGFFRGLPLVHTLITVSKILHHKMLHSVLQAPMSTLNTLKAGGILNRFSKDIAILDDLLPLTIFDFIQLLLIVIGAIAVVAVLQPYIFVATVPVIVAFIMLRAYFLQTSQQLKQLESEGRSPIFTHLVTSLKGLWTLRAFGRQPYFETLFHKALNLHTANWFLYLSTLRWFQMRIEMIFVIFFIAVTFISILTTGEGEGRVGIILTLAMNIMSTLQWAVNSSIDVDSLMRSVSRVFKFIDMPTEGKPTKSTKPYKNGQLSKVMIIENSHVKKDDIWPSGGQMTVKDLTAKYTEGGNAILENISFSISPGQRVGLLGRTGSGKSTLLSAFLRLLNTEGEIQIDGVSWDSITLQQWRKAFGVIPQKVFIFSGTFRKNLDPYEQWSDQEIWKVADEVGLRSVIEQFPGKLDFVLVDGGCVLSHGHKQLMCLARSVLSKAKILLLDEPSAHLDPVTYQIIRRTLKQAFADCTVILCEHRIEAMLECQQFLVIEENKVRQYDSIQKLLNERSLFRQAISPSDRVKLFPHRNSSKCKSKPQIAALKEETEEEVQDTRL

As a reminder, the EC50 is the concentration needed to bring the measured effect to its halfway point. The low end stands for an effect from little substance, the high end for a need for much substance. For `NC(=O)c1cc(S(=O)(=O)N2CCC(F)(F)CC2)sc1NC(=O)c1cc[nH]n1` [Compound 140, N-(3-carbamoyl-5-(4,4-difluoropiperidin-1-ylsulfonyl)thiophen-2-yl)-1H-pyrazole-3-carboxamide], the EC50 on CFTR ΔF508 mutant [1] came out at 29.3 nM; at CFTR ΔF508 mutant [2], 10.3 nM; on CFTR G551D mutant, 67.4 nM.
With `CCc1cc(C(=O)Nc2sc(S(=O)(=O)N3CCC(F)(F)CC3)cc2C(N)=O)n[nH]1` [Compound 141, N-(3-carbamoyl-5-(4,4-difluoropiperidin-1-ylsulfonyl)thiophen-2-yl)-5-ethyl-1H-pyrazole-3-carboxamide], the figures for the EC50 at CFTR ΔF508 mutant [1], on CFTR ΔF508 mutant [2] and on CFTR G551D mutant were 29.7 nM, 98.2 nM and 258 nM, respectively.
For `CC(C)(C)c1cc(C(=O)Nc2sc(S(=O)(=O)N3CCC(F)(F)CC3)cc2C(N)=O)n[nH]1` [Compound 142, 5-tert-butyl-N-(3-carbamoyl-5-(4,4-difluoropiperidin-1-ylsulfonyl)thiophen-2-yl)-1H-pyrazole-3-carboxamide], the EC50 on CFTR ΔF508 mutant [1] came out at 70.7 nM; on CFTR ΔF508 mutant [2], 294 nM; on CFTR G551D mutant it was 536 nM.
Turning to `NC(=O)c1cc(S(=O)(=O)N2CCOCC2)sc1NC(=O)c1ccccc1O` [Compound 143, 2-(2-Hydroxy-benzoylamino)-5-(morpholine-4-sulfonyl)-thiophene-3-carboxylic acid amide], the EC50 at CFTR ΔF508 mutant [1] worked out at 29.2 nM; on CFTR ΔF508 mutant [2], 27.2 nM; at CFTR G551D mutant, 232 nM.
Consider `CN(Cc1ccc(F)cc1)S(=O)(=O)c1cc(C(N)=O)c(NC(=O)c2cc[nH]n2)s1` [Compound 145, 1H-Pyrazole-3-carboxylic acid {3-carbamoyl-5-[(4-fluoro-benzyl)-methyl-sulfamoyl]-thiophen-2-yl}-amide], for which the EC50 on CFTR ΔF508 mutant [1] stood at 19.5 nM; at CFTR ΔF508 mutant [2], 71 nM; at CFTR G551D mutant, 215 nM.
The like results for `COCCN(CC(F)(F)F)S(=O)(=O)c1cc(C(N)=O)c(NC(=O)c2ccccc2F)s1` [Compound 157, 2-(2-fluorobenzamido)-5-(N-(2-methoxyethyl)-N-(2,2,2-trifluoroethy)sulfamoyl) thiophene-3-carboxamide] were, in that order, 86.5 nM, 60.9 nM and 241 nM.
Consider `CN(Cc1ccc(F)cc1F)S(=O)(=O)c1cc(C(N)=O)c(NC(=O)c2cc[nH]n2)s1` [Compound 172, N-(3-carbamoyl-5-(N-(2,4-difluorobenzyl)-N-methylsulfamoyl)thiophen-2-yl)-1H-pyrazole-3-carboxamide], for which the EC50 at CFTR ΔF508 mutant [1] came to 15.4 nM; on CFTR ΔF508 mutant [2], 42 nM; on CFTR G551D mutant it was 136 nM.
Regarding `NC(=O)c1cc(S(=O)(=O)N2CCC(F)(F)CC2)sc1NC(=O)c1cc(C(F)(F)F)[nH]n1` [Compound 189, N-(3-carbmoyl-5-(4,4-difluoropiperidin-1-ylsulfonyl)thiophen-2-yl)-5-(trifluoromethyl)-1H-pyrazole-3-carboxamide], the EC50 at CFTR ΔF508 mutant [1] worked out at 122 nM; at CFTR G551D mutant, 226 nM.
Turning to `NC(=O)c1cc(S(=O)(=O)N2CCC(F)(F)CC2)sc1NC(=O)c1ccccc1O` [Compound 190, 5-(4,4-difluoropiperidin-1-ylsulfonyl)-2-(2-hydroxybenzamido)thiophene-3-carboxamide], the EC50 on CFTR ΔF508 mutant [1] was determined as 73.9 nM; at CFTR ΔF508 mutant [2], 83.3 nM; at CFTR G551D mutant, 278 nM.
In the case of `NC(=O)c1cc(S(=O)(=O)N(Cc2ccc(F)cc2)C2CC2)sc1NC(=O)c1cc[nH]n1` [Compound 191, N-(3-carbamoyl-5-(N-cyclopropyl-N-(4-fluorobenzyl)sulfamoyl)thiophen-2-yl)-1H-pyrazole-3-carboxamide], the figures for the EC50 on CFTR ΔF508 mutant [1], on CFTR ΔF508 mutant [2] and on CFTR G551D mutant were 90 nM, 197 nM and 245 nM, respectively.
With `CN(CC1CC1)S(=O)(=O)c1cc(C(N)=O)c(NC(=O)c2cc[nH]n2)s1` [Compound 193, N-(3-carbamoyl-5-(N-(cyclopropylmethyl)-N-methylsulfamoyl)thiophen-2-yl)-1H-pyrazole-3-carboxamide], the EC50 came out at 114 nM at CFTR ΔF508 mutant [1], 49.5 nM at CFTR ΔF508 mutant [2] and 206 nM at CFTR G551D mutant.
Consider `CC(C)S(=O)(=O)c1cc(C(N)=O)c(NC(=O)c2ccccc2O)s1` [Compound 197, 2-(2-hydroxybenzaido)-5-(isopropylsulfonyl) thiophene-3-carboxamide], for which the EC50 on CFTR ΔF508 mutant [1] stood at 91 nM; on CFTR ΔF508 mutant [2] it was 24.8 nM; on CFTR G551D mutant it was 158 nM.
With `NC(=O)c1cc(S(=O)(=O)N2CCOCC2)sc1NC(=O)c1ccc(F)cc1O` [Compound 198, 2-(4-fluoro-2-hydroxybenzamido)-5-(morpholinosulfonyl)thiophene-3-carboxamide], the EC50 on CFTR ΔF508 mutant [1] is 97.2 nM; on CFTR ΔF508 mutant [2], 20.2 nM; on CFTR G551D mutant it was 136 nM.
In the case of `CC(C)N(C)S(=O)(=O)c1cc(C(N)=O)c(NC(=O)c2cc[nH]n2)s1` [Compound 210, N-(3-carbamoyl-5-(N-isopropyl-N-methylsulfamoyl)thiophen-2-yl)-1H-pyrazole-3-carboxamide], the EC50 was found to be 73.5 nM at CFTR ΔF508 mutant [1], 13.4 nM on CFTR ΔF508 mutant [2] and 470 nM at CFTR G551D mutant.
In turn, `COCCC(=O)Nc1sc(S(=O)(=O)c2ccc(F)cc2)cc1C(N)=O` [Compound 229, 5-(4-fluorophenylsulfonyl)-2-(3-methoxypropanamido) thiophene-3-carboxamide] had an EC50 on CFTR ΔF508 mutant [3] of 3100 nM.
Compound `NC(=O)c1cc(S(=O)(=O)c2ccc(F)cc2)sc1NC(=O)c1cccnc1F` [Compound 230, N-(3-carbamoyl-5-(4-fluorophenylsulfonyl)thiophen-2-yl)-2-fluoronicotinamide] gave an EC50 on CFTR ΔF508 mutant [3] of 988 nM.
On CFTR ΔF508 mutant [3], `CC1COCC(C)N1S(=O)(=O)c1cc(C(N)=O)c(NC(=O)C2(O)CC2)s1` (stereo not shown) [Compound 234, 5-(3,5-dimethylmorpholinosulfonyl)-2-(1-hydroxycyclopropanecarboxamido) thiophene-3-carboxamide] registered a half-maximal effective concentration (EC50) of 283 nM.
On the same count and under the same terms, as for `CC1CN(S(=O)(=O)c2cc(C(N)=O)c(NC(=O)C3(O)CC3)s2)CC(C)O1` (stereo not shown) [Compound 238, 5-(2,6-dimethylmorpholinosulfonyl)-2-(1-hydroxycyclopropanecarboxamido) thiophene-3-carboxamide], the figure is 224 nM.
As to `COC1CCN(S(=O)(=O)c2cc(C(N)=O)c(NC(=O)C3(O)CC3)s2)CC1` [Compound 239, 2-(1-hydroxycyclopropanecarboxamido)-5-(4-methoxypiperidin-1-ylsulfonyl)thiophene-3-carboxamide], the EC50 at CFTR ΔF508 mutant [3] was found to be 292 nM.
`CC1CN(S(=O)(=O)c2cc(C(N)=O)c(NC(=O)C3(O)CC3)s2)CCO1` (stereo not shown) [Compound 240, 2-(1-hydroxycyclopropanecarboxamido)-5-(2-methylmorpholinosulfonyl) thiophene-3-carboxamide] gave an EC50 on CFTR ΔF508 mutant [3] of 611 nM.
For the compound `CC1(C)COCCN1S(=O)(=O)c1cc(C(N)=O)c(NC(=O)C2(O)CC2)s1` [Compound 241, 5-(3,3-dimethylmorpholinosulfonyl)-2-(1-hydroxycyclopropanecarboxamido) thiophene-3-carboxamide], the EC50 at CFTR ΔF508 mutant [3] was found to be 247 nM.
The compound `COC1CN(S(=O)(=O)c2cc(C(N)=O)c(NC(=O)C3(O)CC3)s2)C1` [Compound 243, 2-(1-hydroxycyclopropanecarboxamido)-5-(3-methoxyazetidin-1-ylsulfonyl)thiophene-3-carboxamide] had an EC50 at CFTR ΔF508 mutant [3] of 1620 nM.
As to `COCCN(C1CC1)S(=O)(=O)c1cc(C(N)=O)c(NC(=O)C2(O)CC2)s1` [Compound 244, 5-(N-cyclopropyl-N-(2-methoxyethyl)sulfamoyl)-2-(1-hydroxycyclopropanecarboxamido) thiophene-3-carboxamide], at CFTR ΔF508 mutant [3], the EC50 stood at 153 nM.
Turning to `NC(=O)c1cc(S(=O)(=O)c2ccc(F)cc2)sc1NC(=O)c1cccnn1` [Compound 249, N-(3-carbamoyl-5-(4-fluorophenylsulfonyl)thiophen-2-yl)pyridazine-3-carboxamide], the midpoint of the response at CFTR ΔF508 mutant [3], the EC50, lay at 2900 nM.
Same read-out and setting: under `NC(=O)c1cc(S(=O)(=O)c2ccc(F)cc2)sc1NC(=O)c1ccnnc1` [Compound 250, N-(3-carbamoyl-5-(4-fluorophenylsulfonyl)thiophen-2-yl) pyridazine-4-carboxamide] stands over 1000 nM.

The record behind these values is patent publication US9382254B2, “Compounds and pharmaceutical compositions thereof for the treatment of cystic fibrosis” (Galapagos NV, priority 2013, dated 2016).
